According to patent publication EP0439320A1, “Erectile dysfunction treatment” (YAMANOUCHI PHARMACEUTICAL CO. LTD., priority 1990, dated 1991):
No end group written: not given here.

Legend:
[1] = test system: penis cavernous smooth muscle of pigs; assay: Relaxation of isolated pig cavernous smooth muscle strip precontracted with noradrenaline (organ bath, tension recorded); conditions: for Time until prior response restored: contractile response to noradrenaline
Method: The pig and humans cavernous smooth muscle specimens are placed in an organ bath, and the tension is recorded. […] Work was also conducted with reference compounds in the porcine tissue, measuring the contractile response to noradrenaline.

[2] = test system: human cavernous smooth muscle strip; assay: Relaxation of isolated human cavernous smooth muscle strip contracted with noradrenaline (organ bath); parameters: species or system humans; conditions: dose 10^-7 M, contracted with noradrenaline 2 x 10^-5 M, read-out: Inhibiting effect
Method: The relaxing effect of compound (I) on isolated specimens of penis cavernous smooth muscle of pigs (smooth muscle strips obtained from slaughtered boards) and of humans was tested by the following method. The pig and humans cavernous smooth muscle specimens are placed in an organ bath, and the tension is recorded. In the case of human cavernous smooth muscle strip, the relaxatory effect was evaluated. The specimen was contracted with a noradrenaline dose of 2 x 10⁻⁵ M and was treated with compound (I) at a dose of 10⁻⁷ M. In Table 2, the result for human tissue is shown.

[3] = test system: penis erection (tumescence) and its firmness (rigidity); assay: Tumescence and rigidity after intracorporeal injection in anesthetized monkeys; format: in vivo, monkeys (Cynogos or Vervet); conditions: 0.1 g injected into the corpus cavernosum; evaluated 5 to 120 min after injection; data only in Fig. 1
Method: Tumescence and rigidity after intracorporeal injection of compound (I) were evaluated for monkeys.
Anesthetized monkeys (Cynogos or Vervet), 4-6 kg body weight, were used for the test.
The animal was anesthetized with ketamine and 0.1 g of compound (I) was injected in solution into the corpus cavernosum with a tourniquet at the base of the penis; the animal was then under observation and changes in tumescence and rigidity were noted and plotted. The tourniquet was removed 5 min after the injection.
Manual and visual evaluation of tumescence and rigidity was made 5, 10, 15, 20, 30, 60 and 120 min after injection.
The activity of compound (I) (dose: 0.1 g) on penis erection (tumescence) and firmness (rigidity) in the anesthetized monkeys is shown in Fig. 1.

[4] = Acute toxicity test in mice; conditions: mouse, in vivo, single dose, 2 weeks observation, read-out: LD50 (95% confidence limits)
Method: (§1) The acute toxicity of compound (I) salt was evaluated using ICR mice and F344 rats.
(§2) compound (I) was dissolved in dimethylsulfoxide, and the same amount of Macrogol 400 (trade name) was added, and then distilled water for injection was added thereto to provide a solution of predetermined concentration. The solution was injected once each test, intravenously or subcutaneously, at a rate of 10-20 ml/kg, the maximum concentration of the administered solution being 12 mg/ml and 25 mg/ml respectively. The animals were kept under observation for 2 weeks. LD₅₀ values were determined by the up and down method (Probit method) using 5 animals.

[5] = Acute toxicity test in rats; conditions: rat, in vivo, F344 rats, single dose, 2 weeks observation, read-out: LD50 (95% confidence limits)
Method: as §1, §2

For `CCOc1ccccc1OCCNC(C)Cc1ccc(OC)c(S(N)(=O)=O)c1` (stereo not drawn) [Compound (I), 5-[2-[2-(2-ethoxyphenoxy)ethylamino]-2-methylethyl] -2-methoxybenzene sulfonamide], the “full response seen (contractile response to noradrenaline)” value ([1]; antagonist dose 10^-8 M, at 165 min, noradrenaline 10^-6 to 10^-8 M) was “At 165 min 60% of full response seen”, the inhibition at 0.1 µM [2] was 100% and the “Effect on penis erection (tumescence) and firmness (rigidity)” value [3] was “excellent effects of potent penis erection, tumescence and rigidity with long lasting action”. For the same compound, the LD50 at 336 h ([4]; iv, Female) was 103 mg/kg, the LD50 at 336 h ([4]; iv, Male) was 98 mg/kg and the LD50 at 336 h ([4]; sc, subcutaneous, Female) was 275 mg/kg. For the same compound, the LD50 at 336 h ([4]; sc, subcutaneous, Male) was 254 mg/kg, the LD50 at 336 h ([5]; iv, intravenous, Female) was 78 mg/kg and the LD50 at 336 h ([5]; iv, intravenous, Male) was 70 mg/kg. The LD50 at 336 h ([5]; sc, subcutaneous, Female) was 347 mg/kg and the LD50 at 336 h ([5]; sc, subcutaneous, Male) was 395 mg/kg.
With `COc1ccc(Cc2nccc3cc(OC)c(OC)cc23)cc1OC` [Papaverine] the “Time until prior response restored” value ([1]; antagonist dose 2 x 10^-4 M) was 45 min.
With `Cc1ccc(N(CC2=NCCN2)c2cccc(O)c2)cc1` [Phentolamine] the “Time until prior response restored” value ([1]; antagonist dose 7 x 10^-7 M) was 150 min.
With `COc1cc2nc(N3CCN(C(=O)c4ccco4)CC3)nc(N)c2cc1OC` [Prazocin] the “Time until prior response restored” value ([1]; antagonist dose 10^-6 M) was 160 min.
In the case of “vasoactive intestinal peptide (HSDAVFTDNYTRLRKQMAVKKYLNSILN; ends and bridges not checked; UniProt P01282 125-152, looked up) [VIP (vasoactive intestinal peptide)]”, the “Time until prior response restored” value ([1]; antagonist dose 10^-7 M) is reported as 45 min.
